pIC50: −log10 of the molar value. Counter-ions that a name gives are not always drawn.

For this test, the target named is T1, Syk tyrosine kinase (Homo sapiens, UniProt P43405).
T1 construct: purchased Carna Biosciences, Inc
Briefly: Test for Syk tyrosine kinase inhibitory activity (ELISA). The test is classed as biochemical. To be noted: Syk tyrosine kinase (Carna Biosciences), 25 μM ATP in substrate solution, 30° C. 1 hour, n=2; read-out: Evaluation (IC50, concentration inhibiting the tyrosine kinase activity at 50%). As to the method:
Test Example 1: Test for Syk Tyrosine Kinase Inhibitory Activity
1. Preparation of Test Substance
A test substance was prepared at 10 mM in dimethyl sulfoxide (DMSO), and further diluted with DMSO to concentrations of 1000, 300, 100, 30, 10, 3, 1, 0.3, 0.1, 0.03, and 0.01 μM. The resulting solutions were further diluted to 20-fold with an assay buffer, whereby test substance solutions were prepared. As a negative control, a solution obtained by diluting DMSO to 20-fold with an assay buffer was used. As the assay buffer, a buffer containing 15 mM Tris-HCl (pH 7.5), 0.01 (v/v) % Tween-20, and 1 mM dithiothreitol was used.
2. Measurement of Syk Tyrosine Kinase Inhibitory Activity
The activity was measured using the ELISA method. Each of the test substance solutions was added to a streptavidine-coated 96-well place (DELFIA Strip Plate 8×12 wells, PerkinElmer Co., Ltd,) at 10 μL per well (n=2), and a substrate solution (625 nM biotinylated peptide substrate, 25 μM ATP, 25 mM MgCl2, 15 mM Tris-HCl (pH 7.5), 0.01 (v/v) % Tween-20, 1 mM dithiothreitol) was added to the plate at 20 μL per well, and the resulting mixture was stirred. Finally, Syk tyrosine kinase (Carna Biosciences, Inc.) (previously diluted to 0.025 nM with the assay buffer) was added to the plate at 20 μL per well, and the resulting mixture was stirred. A reaction was allowed to proceed at 30° C. for 1 hour. After the plate was washed 4 times with a washing buffer (50 mM Tris-HCl (pH 7.5, 150 mM NaCl, 0.02 (v/v) % Tween-20), a blocking buffer (0.1% bovine serum albumin, 50 mM Tris-HCl (pH 7.5), 150 mM NaCl, 0.02 (v/v) % Tween-20) was added to the plate at 150 μL per well, and blocking was performed at 30° C. for 30 minutes. Then, the blocking buffer was removed, and a horseradish peroxidase-labeled anti-phosphorylated tyrosine antibody (BD Biosciences, Inc.) (previously diluted to 10000-fold with the blocking buffer) was added to the plate at 100 μL per well, and the plate was incubated at 30° C. for 30 minutes. After the plate was washed 4 times with the washing buffer, a 3,3′,5,5′-tetramethylbenzidine solution (Sigma-Aldrich Co., Ltd.) was added to the plate at 100 μL per well to develop the color for 10 minutes. The reaction was stopped by adding 0.1 M sulfuric acid at 100 μL per well. The absorbance at 450 nm was measured using a microplate reader (Multiskan F C, Thermo Fisher Scientific K,K.).
3. Analysis of Measurement Results
A non-linear regression analysis was performed for the measured absorbance using the SAS system (SAS institute. Inc.), and a concentration of each of the test substances: inhibiting the tyrosine kinase activity at 50% (IC50 ) was calculated. A case where IC50 is […] was evaluated as ***, a case where IC50 is 5 nM or more and less than 50 nM was evaluated as **, and a case where IC50 is 50 nM or more and less than 500 nM was evaluated as *, which are shown in the column of evaluation item.
Turning to “2-({4-cyclopropyl-6-[2-ethyl-1-(trans-4-hydroxycyclohexyl)-1H-benzimidazol-6-yl]pyridin-2-yl}amino)pyridine-4-carbonitrile hydrochloride [Example 157]”, the pIC50 is above 8.30. “2-({6-[1-(4-cyanopiperidin-1-yl)isoquinolin-7-yl]-4-cyclopropylpyridin-2-yl}amino)pyridine-4-carbonitrile hydrochloride [Example 170]”: the pIC50 is 7.30 to 8.30. The same measure for `CC(=O)O[C@@H]1CCC[C@H]1n1cnc2ccc(-c3cc(C4CC4)cc(Nc4cc(C#N)ccn4)n3)cc21` (relative stereo) [Example 141, trans-2-(6-{6-[(4-cyanopyridin-2-yl)amino]-4-cyclopropylpyridin-2-yl}-1H-benzimidazol-1-yl)cyclopentyl acetate hydrochloride]: 6.30 to 7.30; for `N#Cc1ccnc(Nc2cc(C3CC3)cc(-c3ccc4ncn([C@@H]5CCCC[C@H]5O)c4c3)n2)c1` (relative stereo) [Example 146, 2-[(4-cyclopropyl-6-{1[trans-2-hydroxycyclohexyl]-1H-benzimidazol-6-yl}pyridin-2-yl)amino]pyridine-4-carbonitrile hydrochloride]: 7.30 to 8.30; for `N#Cc1ccnc(Nc2cc(C3CC3)cc(-c3ccc4c(c3)ncn4[C@@H]3CCCC[C@H]3O)n2)c1` (relative stereo) [Example 152, 2-[(4-cyclopropyl-6-{1-[trans-2-hydroxycyclohexyl]-1H-benzimidazol-5-yl}pyridin-2-yl)amino]pyridine-4-carbonitrile hydrochloride]: 6.30 to 7.30. As to `N#Cc1ccnc(Nc2cc(C3CC3)cc(-c3ccc(N4CCOCC4)nc3)n2)c1` [Example 1, 2-{[4-cyclopropyl-6′-(morpholin-4-yl)-2,3′-bipyridin-6-yl]amino}pyridine-4-carbonitrile hydrochloride], the pIC50 was 7.30 to 8.30.

With `N#Cc1ccnc(Nc2cc(C3CC3)cc(-c3ccc(NCCO)nc3)n2)c1` [Example 2, 2-({4-cyclopropyl-6′-[(2-hydroxyethyl)amino]-2,3′-bypyridin-6-yl}amino)pyridine-4-carbonitrile hydrochloride], the pIC50 was 7.30 to 8.30. As to `N#Cc1ccnc(Nc2cc(C3CC3)cc(-c3ccc(N4CCS(=O)(=O)CC4)nc3)n2)c1` [Example 3, 2-{[4-cyclopropyl-6′-(1,1-dioxidethiomorpholin-4-yl)-2,3′-bipyridin-6-yl]amino}pyridine-4-carbonitrile hydrochloride], the pIC50 was above 8.30.

As for `N#Cc1ccnc(Nc2cc(C3CC3)cc(-c3ccc(N4CCC(=O)CC4)nc3)n2)c1` [Example 4, 2-{[4-cyclopropyl-6′-(4-oxopiperidin-1-yl)-2,3′-bipyridin-6-yl]amino}pyridine-4-carbonitrile hydrochloride], the pIC50 is 7.30 to 8.30. Turning to `N#Cc1ccnc(Nc2cc(C3CC3)cc(-c3ccc(N4CCNC(=O)C4)nc3)n2)c1` [Example 5, 2-{[4-cyclopropyl-6′-(3-oxopiperazin-1-yl)-2,3′-bipyridin-6-yl]amino}pyridine-4-carbonitrile hydrochloride], the pIC50 is 7.30 to 8.30. The value for `N#Cc1ccnc(Nc2cc(C3CC3)cc(-c3ccc(N4CC(O)C4)nc3)n2)c1` [Example 6, 2-{[4-cyclopropyl-6′-(3-hydroxyazetidin-1-yl)-2,3′-bipyridin-6-yl]amino}pyridine-4-carbonitrile hydrochloride] was 7.30 to 8.30. Regarding `N#Cc1ccnc(Nc2cc(C3CC3)cc(-c3ccc(N4CCN(CC(N)=O)CC4)nc3)n2)c1` [Example 7, 2-(4-{6-[(4-cyanopyridin-2-yl)amino]-4-cyclopropyl-2,3′-bipyridin-6′-yl}piperazin-1-yl)acetamide hydrochloride], the pIC50 was 6.30 to 7.30. Regarding `N#Cc1ccnc(Nc2cc(C3CC3)cc(-c3ccc(N4C[C@H](O)CC4=O)nc3)n2)c1` [Example 8, 2-({4-cyclopropyl-6′-[(4R)-4-hydroxy-2-oxopyrrolidin-1-yl]-2,3′-bipyridin-6-yl}amino)pyridine-4-carbonitrile hydrochloride], the pIC50 is 6.30 to 7.30. The same measure for `CC(=O)N1CCCN(c2ccc(-c3cc(C4CC4)cc(Nc4cc(C#N)ccn4)n3)cn2)CC1` [Example 9, 2-{[6′-(4-acetyl-1,4-diazepan-1-yl)-4-cyclopropyl-2,3′-bipyridin-6-yl]amino}pyridine-4-carbonitrile hydrochloride]: 6.30 to 7.30.

In the case of `N#Cc1ccnc(Nc2cc(C3CC3)cc(-c3ccc(N4CCCN(C(N)=O)CC4)nc3)n2)c1` [Example 10, 4-{6-[(4-cyanopyridin-2-yl)amino]-4-cyclopropyl-2,3′-bipyridin-6′-yl}-1,4-diazepane-1-carboxamide hydrochloride], the pIC50 is 7.30 to 8.30. The same measure for `N#Cc1ccnc(Nc2cc(C3CC3)cc(-c3ccc(N4C[C@@H](O)CC4=O)nc3)n2)c1` [Example 11, 2-({4-cyclopropyl-6′-[(4S)-4-hydroxy-2-oxopyrrolidin-1-yl]-2,3′-bipyridin-6-yl}amino)pyridine-4-carbonitrile hydrochloride]: 6.30 to 7.30; for `N#Cc1ccnc(Nc2cc(C3CC3)cc(-c3ccc(N[C@H]4CC[C@H](O)CC4)nc3)n2)c1` [Example 12, 2-({4-cyclopropyl-6′-[(trans-4-hydroxycyclohexyl)amino]-2,3′-bipyridin-6-yl}amino)pyridine-4-carbonitrile hydrochloride]: 6.30 to 7.30. The same measure for `N#Cc1ccnc(Nc2cc(C3CC3)cc(-c3ccc4c(c3)ncn4CCN)n2)c1` [Example 13, 2-({6-[1-(2-aminoethyl)-1H-benzimidazol-5-yl]-4-cyclopropylpyridin-2-yl}amino)pyridine-4-carbonitrile hydrochloride]: 7.30 to 8.30. The value for `N#Cc1ccnc(Nc2cc(C3CC3)cc(-c3ccc4c(c3)ncn4[C@H]3CC[C@H](O)CC3)n2)c1` [Example 14, 2-({4-cyclopropyl-6-[1-(trans-4-hydroxycyclohexyl)-1H-benzimidazol-5-yl]pyridin-2-yl}amino)pyridine-4-carbonitrile hydrochloride] was 7.30 to 8.30; that for `Cn1cnc2cc(-c3cc(C4CC4)cc(Nc4cc(C#N)ccn4)n3)ccc21` [Example 15, 2-{[4-cyclopropyl-6-(1-methyl-1H-benzimidazol-5-yl)pyridin-2-yl]amino}pyridine-4-carbonitrile hydrocloride] was 7.30 to 8.30. For the compound `N#Cc1ccnc(Nc2cc(C3CC3)cc(-c3ccc4c(c3)ncn4C3CCOCC3)n2)c1` [Example 16, 2-({4-cyclopropyl-6-[1-tetrahydro-2H-pyran-4-yl)-1H-benzimidazol-5-yl]pyridin-2-yl}amino)pyridine-4-carbonitrile hydrochloride], the pIC50 was 7.30 to 8.30. `N#Cc1ccnc(Nc2cc(C3CC3)cc(-c3ccc(C#N)nc3)n2)c1` [Example 17, 6-[(4-cyanopyridin-2-yl)amino]-4-cyclopropyl-2,3′-bipyridine-6′-carbonitrile hydrochloride]: the pIC50 was 6.30 to 7.30. The value for `N#Cc1ccnc(Nc2cc(C3CC3)cc(-c3ccc(N)nc3)n2)c1` [Example 18, 2-[(6′-amino-4-cyclopropyl-2,3′-bipyridin-6-yl)amino]pyridine-4-carbonitrile hydrochloride] was 7.30 to 8.30.

Source of the values: patent US20130225548A1, “Pyridine Derivative and Medicinal Agent” (NIPPON SHINYAKU CO., LTD., priority 2010, published 2013).
